Reference: patent US20060003364A1, “GLUT1 transporters expressed in cancer cells” (XenoPort, Inc., priority 2004, published 2006)

Biological target: T1, GLUT1 (Homo sapiens, UniProt P11166)
T1 sequence (P11166 1-492): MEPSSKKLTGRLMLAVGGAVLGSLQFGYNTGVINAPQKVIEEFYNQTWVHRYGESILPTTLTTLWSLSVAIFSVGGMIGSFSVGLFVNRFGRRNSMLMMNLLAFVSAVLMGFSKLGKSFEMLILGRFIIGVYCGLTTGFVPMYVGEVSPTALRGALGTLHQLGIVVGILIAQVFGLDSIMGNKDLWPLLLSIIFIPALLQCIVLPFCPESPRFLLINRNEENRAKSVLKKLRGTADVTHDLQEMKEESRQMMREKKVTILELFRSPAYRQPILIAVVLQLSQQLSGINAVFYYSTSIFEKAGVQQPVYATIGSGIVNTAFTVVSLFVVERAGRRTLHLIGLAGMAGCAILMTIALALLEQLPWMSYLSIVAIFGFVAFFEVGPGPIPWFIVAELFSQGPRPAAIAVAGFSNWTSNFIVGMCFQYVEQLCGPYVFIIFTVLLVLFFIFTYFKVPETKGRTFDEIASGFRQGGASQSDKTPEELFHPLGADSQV
Test: not given
Details: cited from earlier work

Row | Molecule | Reported Affinity for GLUT1 [mM]
1 | O=C1O[C@H]([C@@H](O)CO)C(=O)C1=O [Dehydroascorbic Acid] | 0.8
2 | O=C[C@H](O)[C@@H](O)[C@@H](O)[C@H](O)CO [Galactose] | 4
3 | Fluorodeoxyglucose | 4
4 | N[C@H]1C(O)O[C@H](CO)[C@@H](O)[C@@H]1O (stereo partly drawn) [Glucosamine] | 9
5 | (S)-methoxy-a-methyl-2-napthalene acetic acid amido galacto pyranose | 1

Biological target: T1, GLUT1
Test: Radiolabel glucose uptake in Xenopus oocytes expressing GLUT1
Format: cell-based
Set-up: expressed in transfected cells; host or cells: Xenopus oocytes (cRNA injected)
Details: oocytes expressing GLUT1 vs noninjected controls; 3 minutes, ND96 buffer
Procedure: To assess transport function of a specific transporter protein, it can be desirable to clone the cDNA and express the protein in cells that have low endogenous transport activity. Human GLUT1 was cloned by PCR, fully sequenced, and subcloned into plasmids that can be used for expression in mammalian cells or Xenopus oocytes. […] For expression in Xenopus oocytes, in vitro GLUT1 cRNA was prepared and injected into defoliculated oocytes.
Oocytes expressing GLUT1 or control oocytes not expressing GLUT1 were incubated in an oocyte ringers (ND96) buffer ([…], 10 mM HemiNa HEPES, 2 mM KCl, 1 mM MgCl, 1.8 mM CaCl2) containing 0.5% bovine serum albumin and 3H-glucose (10^6 CPM/ml) for 3 minutes. Oocytes were washed and uptake of radiolabel quantified by scintillation counting.

Row | Molecule | 3H-glucose uptake
6 | O=C[C@H](O)[C@@H](O)[C@H](O)[C@H](O)CO [^3H-glucose] | higher levels of ^3H-glucose uptake than noninjected controls
